Results: US20250381165A1, “Method of Use for Benzofuran Compounds” (Tampa Bay Research Institute, Inc., priority 2024, published 2025)
Where two headings read alike, the source gives them in different places. Each block holds one compound with its values, some of them ahead of it.

Columns and labels:
Format in all cases: cell-based, murine
[1] = tested on: DC2.4 cells (B3Z activation); assay: Pathway inhibitor studies in DC2.4/B3Z assay
Procedure: […]. The cytotoxicity of all inhibitors was assessed using CellTiter96 Aqueous One (Promega (Madison WI, USA); cat. no. G3580).
. The cells were then washed 2× before addition of BzFβ. Cells exposed to the other inhibitors were incubated with an appropriate concentration of each inhibitor, seen in Table 1 in cDMEM at 37° C., 5% CO2. […]. Cells were then incubated for 6 h. Before B3Z addition the inhibitor and BzFβ were removed, and the cells washed with warm DPBS. If testing peptide presentation, the DC2.4 cells were pulsed with 0.5 nM […] for 1 h prior to being cocultured with B3Z.

[2] = tested on: MHC class I H-2Kb on DC2.4; assay: MHC class I recovery after acid stripping of DC2.4; details: 25 μg/mL BzFβ or 5 mM GL during recovery, 4-24 h
Procedure: To determine if BzFβ affects synthesis or cycling of the MHC class I molecules, the class I molecule/peptide complexes were stripped from the surface of DC2.4 cells using a citric acid buffer, then treated with 25 μg/mL BzFβ, 5 mM of the dipeptide GL, or 3 μg/mL BFA (see Example 4) as a negative control.
An acid wash to strip the cell surface of MHC class I was performed as described with modifications. (Montealegre, et al., Dissociation of β2-microglobulin determines the surface quality control of major histocompatibility complex class I molecules. FASEB. 2015 July; 29(7):2780-8). DC2.4 were incubated overnight at 37° C. at 1×10^5. Cells were washed for 2 min in acidic buffer [(pH 2.5) 465 mM Citric acid, 35 mM sodium citrate, in PBS with 1% v/v FBS] or neutral buffer [(pH 7.4) PBS with 1% v/v FBS]. Afterwards the pH was neutralized by the addition of cDMEM. The cells were washed with PBS and treated with BzFβ or GL in cDMEM for various times to allow for MHC class I recovery at 37° C. Cells were washed and stained with an H-2Kb-specific antibody (Invitrogen, cat. no. 12-5958-82) and analyzed by flow cytometry as described previously
MHC I recovery on the cell surface at various time points was detected by flow cytometry using the PE-labeled MHC class I H-2Kb specific antibody (AF6-88.5.5.3). […] At 6 hours >60% of the MHC class I molecules recovered, seen in FIG. 14.

[3] = tested on: B16F10 cells (B3Z activation); assay: B3Z activation by B16F10 (OVA or SIINFEKL)
Procedure: B16F10 were plated at a density of 2.5 or 5×10^4 cells/well (100 μL/well in 96 well plates) and cultured overnight in cDMEM. The cells were washed with DPBS and then treated for 1-24 h with the indicated concentrations of BzFβ or co-treated with the indicated concentrations of BzFβ and 1.0 mg/mL OVA, suspended in complete media. Cells treated with BzFβ only were pulsed with 2 nM SIINFEKL pulsed for 1 h. The cells were then co-cultured with equal number of B3Z cells at 37° C. for 19 h.
In this experiment the activity of the dipeptide, GL, was also examined, as it has been previously reported to function as a peptide exchange factor. (Saini, et al., Dipeptides catalyze rapid peptide exchange on MHC class I molecules. Proc Natl Acad Sci USA. 2015 Jan. 6; 112(1):202-7; Saini, et al., Empty peptide-receptive MHC class I molecules for efficient detection of antigen-specific T cells. Sci Immunol. 2019 Jul. 19; 4(37):eaau9039). B16F10 were plated at a density of 2.5 or 5×10^4 cells/well (100 μL/well in 96 well plates) and cultured overnight in cDMEM. The cells were washed with DPBS and then co-treated for 24 h with 10 mM (1.88 mg/mL) of GL and 1.0 mg/mL OVA or were pulsed with 2 nM SIINFEKL for 1 h following treatment with 10 mM GL in complete media. The cells were then co-cultured with an equal number of B3Z cells at 37° C. for 19 h.

[4] = target: T1, MHCI/SIINFEKL complex on DC2.4 (Mus musculus, UniProt P01901); assay: Displacement of SIINFEKL from DC2.4 after peptide pulse
T1 construct: DC2.4 are a C57Bl/6 lineage murine cell line and as such they express MHC class I H-2Kb and H-2Db; endogenous in cells; host or cells: DC2.4 (murine dendritic cell line, from Dr. Kenneth Rock)
T1 sequence (P01901 22-369): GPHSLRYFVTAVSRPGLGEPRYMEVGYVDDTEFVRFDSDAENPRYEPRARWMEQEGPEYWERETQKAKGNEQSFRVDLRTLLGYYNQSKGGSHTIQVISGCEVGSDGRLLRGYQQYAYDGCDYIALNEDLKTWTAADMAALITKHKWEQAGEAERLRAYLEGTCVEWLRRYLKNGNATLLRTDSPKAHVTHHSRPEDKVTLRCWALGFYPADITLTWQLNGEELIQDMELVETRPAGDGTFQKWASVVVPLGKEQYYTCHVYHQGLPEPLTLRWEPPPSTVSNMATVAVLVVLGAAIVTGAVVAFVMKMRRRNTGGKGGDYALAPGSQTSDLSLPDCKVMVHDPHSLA
T1 sequence (P01887 21-119 partner): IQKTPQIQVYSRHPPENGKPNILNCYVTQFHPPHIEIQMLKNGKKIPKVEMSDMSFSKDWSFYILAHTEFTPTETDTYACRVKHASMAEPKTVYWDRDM

[5] = target: T2, H-2Kb/SIINFEKL complex on DC2.4 (Mus musculus, UniProt P01901); assay: BFA decay experiment (SIINFEKL off-rate) on DC2.4; details: 24 h pre-treatment, 1 h 30 nM SIINFEKL
T2 construct: DC2.4 are a C57Bl/6 lineage murine cell line and as such they express MHC class I H-2Kb and H-2Db; endogenous in cells; host or cells: DC2.4 (murine dendritic cell line, from Dr. Kenneth Rock)

[6] = tested on: DC2.4 cells presenting SIINFEKL to B3Z CD8+ T cell hybridoma; assay: B3Z activation by SIINFEKL-pulsed DC2.4 (CPRG β-gal assay); details: doses up to 50 μg/mL (265 μM), 0.5 nM SIINFEKL
Procedure: DC2.4 cells (2.5×10^4 cells/well) were seeded at 100 μL/well in 96 well tissue culture white sided/white bottom plate and incubated overnight to allow for cell adherence. 37° C. in an atmosphere containing 5% CO2 and 95% humidity. Following pre-treatment of the DC2.4 cells (1-24 h) with escalating doses of the test molecules, the cells were washed, pulsed with 0.5 nM of the MHC class I H-2Kb peptide, SIINFEKL, for 1 h, and then co-cultured with the CD8+ T cell hybridoma, B3Z.
The level of B3Z cell activation and the effects of the various test molecules on B3Z activation were quantified in cell lysates using the β-gal chromogenic substrate, CPRG. The media was removed and 100 μL of 250 μM CPRG reconstituted in the lysis buffer (1×DPBS, 0.2% v/v saponin, 20 mM magnesium chloride) was added directly to each well. Cells were maintained at 37° C. prior to measurement. The absorbance at 560 nm (700 nm for background) was intermittently monitored using a BioTek Synergy HTX multimode microplate reader (Winooski, VT) to detect β-gal activity. CPRG lysis buffer and B3Z cells only served as the negative controls. All treatments were performed in triplicate and all experiments were repeated a minimum of three times.
Activation of B3Z T cell hybridoma cells was assessed following their exposure to various MHC class I H-2K^b positive cell lines presenting the SIINFEKL peptide. B3Z are a CD8+ SIINFEKL peptide specific T-cell hybridoma expressing a beta-galactosidase (β-gal) reporter gene driven by NF-AT elements on the interleukin 2 (IL-2) promoter. […] Activation of B3Z leads to production of β-gal whose presence can be quantified using the optimized detection assay described by Jendresen et al. (Jendresen, et al., An improved CPRG colorimetric ligand-receptor signal transduction assay based on beta-galactosidase activity in mammalian BWZ-reporter cells. J Pharmacol Toxicol Methods. 2018 March-April; 90:67-75).
To stimulate β-gal production in the B3Z, the H-2Kb murine cell lines, DC2.4, B16F10, and E.G7-OVA, or freshly isolated murine splenocytes, were plated at a density of 2.5 or 5×10^4 cells/well (100 μL/well in 96 well plates) and cultured overnight at 37° C. in an atmosphere containing 5% CO2 and 95% humidity. The cells were washed with DPBS and then treated for 1-24 h with the indicated concentrations of BzFβ suspended in complete media. Vehicle controls were always included. […]
To detect activation of the B3Z cells, the media was removed and 100 μL of 250 µM CPRG reconstituted in the lysis buffer (1×DPBS, 0.2% v/v saponin, 20 mM magnesium chloride) was added directly to each well. […] The absorbance at 560 nm (700 nm for background) was intermittently monitored using a BioTek Synergy HTX multimode microplate reader (Winooski, VT) to detect β-gal activity. […]

[7] = DC2.4 pulsed with SIINFEKL, data not shown
[8] = DC2.4 pulsed with […], data not shown

SMILES: C[C@H]1CCC/C=C/[C@@H]2C[C@H](O)C[C@H]2[C@H](O)/C=C/C(=O)O1 [BFA, Brefeldin A]
effect of BFA on B3Z activation with OVA as antigen source ([1]; DC2.4, 3 μg/mL BFA 1 h pretreatment, 0.5 mg/mL OVA): significantly suppressed

SMILES: Cn1cnc(N)c2ncnc1-2 [3-methyladenine, 3-Methyladenine]
inhibition of BzFβ enhancement of B3Z activation [1, 7]: failed to inhibit

SMILES: CO/C1=C\C(C)=C\[C@@H](C)[C@@H](O)[C@@H](C)C/C(C)=C/C=C/[C@H](OC)[C@@H]([C@@H](C)[C@@H](O)[C@H](C)[C@@]2(O)C[C@@H](O)[C@H](C)[C@@H](C(C)C)O2)OC1=O [Bafilomycin A1]
inhibition of BzFβ enhancement of B3Z activation [1, 8]: failed to inhibit

MHCI/SIINFEKL complex staining versus untreated cells ([4]; 5 mM GL after 1 h pulse 30 nM SIINFEKL, p=0.0027): significantly reduced
concentration of dipeptides required relative to BzFβ ([4]; displace or enhance peptide binding): 3 fold
decay rate of SIINFEKL / stability of H-2Kb/SIINFEKL complex [5]: no increase in overall stability
SMILES: CC(C)CC(NC(=O)CN)C(=O)O (stereo not drawn) [GL, Glycine-leucine dipeptide, reference compound]
MHC class I recovery after acid stripping [2]: no increase in MHC class I production
B3Z activation by B16F10, OVA ([3]; co-treatment with 1 mg/mL OVA, GL at 10 mM): no effect on the uptake or processing of OVA
B3Z activation by B16F10, SIINFEKL ([3]; pre-treatment, 1 h pulse 2 nM SIINFEKL, BzFβ 25, 50 μg, GL 10 mM): significantly enhance B3Z activation

SMILES: C=C1[C@@H](C)[C@H]2[C@H](Cc3ccccc3)NC(=O)[C@]23[C@H](OC(C)=O)/C=C/[C@@](C)(O)C(=O)[C@@H](C)C/C=C/[C@H]3[C@@H]1O [cytochalasin D, Cytochalasin D]
inhibition of BzFβ enhancement of B3Z activation [1, 8]: failed to inhibit

SMILES: O=C(O)/C=C/c1ccc2c(c1)OCO2 [molecule #4, (2E)-3-(1,3-benzodioxol-5yl)acrylic acid]
B3Z activation by analog-treated DC2.4 [6]: failed to evoke activation of the B3Z response

SMILES: O=C(O)C=Cc1ccc2c(c1)CCO2 [molecule #2, 3-(2,3-dihydro-1-benzofuran-5-yl)acrylic acid]
B3Z activation by analog-treated DC2.4 [6]: failed to evoke activation of the B3Z response

SMILES: C[C@@H]1C[C@@H]([C@H](O)CC2CC(=O)NC(=O)C2)C(=O)[C@@H](C)C1 [cycloheximide, Cycloheximide]
inhibition of BzFβ enhancement of B3Z activation [1, 8]: failed to inhibit

SMILES: CCN(CC)CCCC(C)Nc1ccnc2cc(Cl)ccc12 (stereo not drawn) [chloroquine, Chloroquine]
inhibition of BzFβ enhancement of B3Z activation [1]: failed to inhibit

SMILES: COc1cccc2c1C(=O)c1c(O)c3c(c(O)c1C2=O)C[C@@](O)(C(=O)CO)C[C@@H]3O[C@H]1C[C@H](N)[C@H](O)[C@H](C)O1 [doxorubicin, Doxorubicin]
inhibition of BzFβ enhancement of B3Z activation [1, 7]: failed to inhibit
